Data taken from patent publication US9718790B2, “Triazine derivative and pharmaceutical composition having an analgesic activity comprising the same” (SHIONOGI & CO., LTD., priority 2010, dated 2017).

target: human P2X3 receptor (Homo sapiens (Human), UniProt P56373); assay: Evaluation of human P2X3 receptor inhibitory activity (Fluo-3 calcium fluorescence, FDSS 3000, ATP stimulation); type: cell-based; conditions: C6BU-1 cells stably expressing human P2X3 receptor;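 further: stimulus was 50 nM ATP with fluorescence followed for 3 min, and the response per well was peak post-ATP fluorescence divided by the reading at measurement start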
Sequence (P56373 whole entry): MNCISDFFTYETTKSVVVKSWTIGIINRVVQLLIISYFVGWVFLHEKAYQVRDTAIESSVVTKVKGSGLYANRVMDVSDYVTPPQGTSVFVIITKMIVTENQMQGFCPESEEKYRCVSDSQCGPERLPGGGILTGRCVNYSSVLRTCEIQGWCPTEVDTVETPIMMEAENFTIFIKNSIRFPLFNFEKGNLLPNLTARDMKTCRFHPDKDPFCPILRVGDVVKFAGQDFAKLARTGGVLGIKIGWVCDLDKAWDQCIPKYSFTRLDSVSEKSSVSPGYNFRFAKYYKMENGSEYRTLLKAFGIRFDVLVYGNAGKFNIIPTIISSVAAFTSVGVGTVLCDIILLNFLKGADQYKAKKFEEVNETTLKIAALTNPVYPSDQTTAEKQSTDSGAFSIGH

Row | Compound | IC50
1 | C[C@@H](Cn1c(=O)[nH]/c(=N\c2ccc3ncccc3c2)n(Cc2ccc(Cl)cc2)c1=O)C(=O)O [Compound I-1346] | 812 nM
2 | COCCOc1ccc(/N=c2\[nH]c(=O)n(C[C@H](C)C(=O)OC)c(=O)n2Cc2ccc(Cl)cc2)cc1Cl [Compound I-0767] | 88 nM
3 | COC(=O)[C@@H](C)[C@@H](C)n1c(=O)[nH]/c(=N\c2ccc(CC(C)C)c(Cl)c2)n(Cc2ccc(Cl)cc2)c1=O [Compound I-1438] | 63 nM
4 | CCCCOc1ccc(/N=c2\[nH]c(=O)n(C[C@H](C)C(=O)O)c(=O)n2Cc2ccc(C)cc2)cc1 [Compound I-0820] | 35 nM
5 | CCCOc1ccc(/N=c2\[nH]c(=O)n(C[C@H](C)C(=O)OC)c(=O)n2Cc2ccc(Cl)cc2)cc1Cl [Compound I-0743] | 13 nM
6 | CCC(=O)Nc1cc(Oc2ccc(/N=c3\[nH]c(=O)n(CC)c(=O)n3Cc3ccc(Cl)cc3)cc2)ccn1 [Compound I-2217] | 6 nM
7 | COc1cc(/N=c2\[nH]c(=O)n(CCO)c(=O)n2Cc2ccc(Cl)cc2)ccc1OC(C)C [Compound I-2006] | 36 nM
8 | COc1ccc(CN2C(=O)CC[C@@H]2Cn2c(=O)[nH]/c(=N\c3ccc(OC(C)C)c(F)c3)n(Cc3ccc(Cl)cc3)c2=O)cc1 [Compound I-0688] | 5 nM
9 | COC(=O)[C@@H](C)Cn1c(=O)[nH]/c(=N\c2ccc(OCC(C)C)cc2)n(Cc2ccc(Cl)cc2)c1=O [Compound I-0749] | 27 nM
10 | CC(C)Oc1ccc(/N=c2\[nH]c(=O)[nH]c(=O)n2Cc2ccc(Cl)cc2)cc1 [Compound I-1981] | 354 nM
11 | COC(=O)[C@@H](C)Cn1c(=O)[nH]/c(=N\c2ccc(OC(F)F)c(F)c2)n(Cc2ccc(Cl)cc2)c1=O [Compound I-0655] | 67 nM
12 | COC(=O)[C@@H](C)Cn1c(=O)[nH]/c(=N\c2ccc(OC3CCCCC3)cc2)n(Cc2ccc(C)cc2)c1=O [Compound I-1219] | 29 nM
13 | Cc1ccc(Cn2c(=O)[nH]c(=O)[nH]/c2=N\c2ccc(Oc3cncc(C(=O)O)c3)cc2)cc1 [Compound I-2102] | 34 nM
14 | Cc1[nH]c2ccc(/N=c3\[nH]c(=O)n(CC(CO)CO)c(=O)n3Cc3ccc(Cl)cc3)cc2c1C [Compound I-1935] | 9 nM
15 | CCc1nc2ccc(/N=c3\[nH]c(=O)n(CCCCC(=O)O)c(=O)n3Cc3ccc(Cl)cc3)cc2s1 [Compound I-2185] | 15 nM
16 | C[C@@H](Cn1c(=O)[nH]/c(=N\c2ccc3c(c2)CCC3)n(Cc2ccc(Cl)cc2)c1=O)C(=O)O [Compound I-0772] | 477 nM
17 | CCOC(=O)CCn1c(=O)[nH]/c(=N\c2ccc(CC(C)C)c(C)c2)n(Cc2ccc(Cl)cc2)c1=O [Compound I-1251] | 17 nM
18 | Cc1ccc(Cn2c(=O)n(C[C@H](C)C(=O)O)c(=O)[nH]/c2=N\c2ccc3oc(C)cc3c2)cc1 [Compound I-0681] | 49 nM
19 | CC[C@H](CC(=O)O)n1c(=O)[nH]/c(=N\c2ccc(OC(C)C)c(C)c2)n(Cc2ccc(Cl)cc2)c1=O [Compound I-0799] | 281 nM
20 | Cc1ccc(Cn2c(=O)n(CCC(=O)O)c(=O)[nH]/c2=N\c2ccc(CC(C)C)c(Cl)c2)cc1 [Compound I-1427] | 8 nM
21 | CCOC(=O)C(CNc1ccc(OC(C)C)c(C)c1)Cn1c(=O)[nH]/c(=N\c2ccc(OC(C)C)c(C)c2)n(Cc2ccc(Cl)cc2)c1=O (stereo not drawn) [Compound I-0778] | 84 nM
22 | CCn1c(=O)[nH]/c(=N\c2ccc(OCC3(C(=O)O)CC3)cc2)n(Cc2ccc(Cl)cc2)c1=O [Compound I-2021] | 230 nM
23 | CC(C)Oc1ccc(/N=c2\[nH]c(OCC(=O)NN(C)C)nc(=O)n2Cc2ccc(Cl)cc2)cc1F [Compound I-0583] | 38 nM
24 | COC(=O)[C@H](C)[C@H](C)n1c(=O)[nH]/c(=N\c2ccc3nc(C)ccc3c2)n(Cc2ccc(Cl)cc2)c1=O [Compound I-1322] | 20 nM
25 | COC(=O)c1ccc(Oc2ccc(/N=c3\[nH]c(=O)n(C)c(=O)n3Cc3ccc(C)cc3)cc2)cc1 [Compound I-2030] | 6 nM
26 | CCOC(=O)CC(C)(C)n1c(=O)[nH]/c(=N\c2ccc(OC(C)C)c(C)c2)n(Cc2ccc(Cl)cc2)c1=O [Compound I-0805] | 29 nM

same assay, conditions: C6BU-1 cells stably expressing human P2X3 receptor, Fluo-3 fluorescence, FDSS 3000

Row | Compound | IC50
27 | CCSc1ccc(/N=c2\[nH]c(=O)n(C[C@H](C)C(=O)OC)c(=O)n2Cc2ccc(Cl)cc2)cc1C [Compound I-1040] | 128 nM
28 | CC1(C)OCC(Cn2c(=O)nc(Cc3cccc(C(F)(F)F)c3)n(Cc3ccc(Cl)cc3)c2=O)CO1 [Compound I-1642] | 551 nM
29 | Cc1cc(Oc2ccc(/N=c3\[nH]c(=O)n(CCCO)c(=O)n3Cc3ccc(Cl)cc3)cc2)ccn1 [Compound I-1599] | 5 nM
30 | C[C@@H](C(=O)O)[C@H](C)n1c(=O)[nH]/c(=N\c2ccc3nc(C4CC4)sc3c2)n(Cc2ccc(Cl)cc2)c1=O [Compound I-1586] | 13 nM
31 | Cc1ccc(Cn2c(=O)n(CC3(CC(=O)O)CC3)c(=O)[nH]/c2=N\c2ccc(OC(C)C)c(C)c2)cc1 [Compound I-0984] | 21 nM
32 | COC(=O)[C@@H](C)[C@H](C)n1c(=O)[nH]/c(=N\c2ccc(OC(C)C)c(C)c2)n(Cc2ccc(Cl)cc2)c1=O [Compound I-1025] | 134 nM
33 | CCc1oc2ccc(/N=c3\[nH]c(=O)n(CCNC(=O)C(F)(F)F)c(=O)n3Cc3ccc(Cl)cc3)cc2c1C [Compound I-1565] | 8 nM
34 | NC(=O)Cn1c(=O)[nH]/c(=N\c2ccc(Oc3ccc(O)nc3)cc2)n(Cc2ccc(Cl)cc2)c1=O [Compound I-1900] | 16 nM
35 | COC(=O)[C@H](C)[C@H](C)n1c(=O)[nH]/c(=N\c2ccc(OC(C)C)c(C)c2)n(Cc2ccc(C)cc2)c1=O [Compound I-0927] | 21 nM
36 | CCCCCOc1ccc(/N=c2\[nH]c(=O)n(CCC(=O)OCC)c(=O)n2Cc2ccc(C)cc2)cc1 [Compound I-1058] | 43 nM
37 | Cc1cc(Oc2ccc(/N=c3\[nH]c(=O)n(CC(=O)O)c(=O)n3Cc3ccc(Cl)cc3)cc2)ccn1 [Compound I-1800] | 510 nM
38 | CCn1c(=O)[nH]/c(=N\c2ccc(Oc3ccnc(CO)c3)cc2)n(Cc2ccc(Cl)cc2)c1=O [Compound I-1844] | 4 nM
39 | CCOC(=O)CCn1c(=O)[nH]/c(=N\c2ccc(OC(C)C)c(C)c2)n(Cc2ccc(C)cc2)c1=O [Compound I-1156] | 6 nM
40 | C[C@@H](Cn1c(=O)[nH]/c(=N\c2ccc(CC3CCCC3)cc2)n(Cc2ccc(Cl)cc2)c1=O)C(=O)O [Compound I-1101] | 53 nM
41 | COC(=O)[C@@H](C)Cn1c(=O)[nH]/c(=N\c2ccc(Oc3ccncc3)cc2)n(Cc2ccc(C)cc2)c1=O [Compound I-1125] | 4 nM

same assay, conditions: human P2X3 receptor, Test Example 1

Row | Compound | IC50
42 | CCn1c(=O)[nH]/c(=N\c2ccc(Oc3cc(C(=O)O)n(C)n3)cc2)n(Cc2ccc(Cl)cc2)c1=O [Compound I-2491] | 74 nM
43 | CCOC(=O)CCn1c(=O)[nH]/c(=N\c2ccc3oc(CC)c(C)c3c2)n(Cc2ccc(C)cc2)c1=O [Compound I-1504] | 5 nM
44 | Cc1cc(/N=c2\[nH]c(=O)n(C[C@H](C)C(=O)O)c(=O)n2Cc2ccc(Br)cc2)ccc1OC(C)C [Compound I-0868] | 23 nM
45 | CCOc1ccc(/N=c2\[nH]c(=O)n(CCC(=O)O)c(=O)n2Cc2ccc(C)cc2)cc1Cl [Compound I-0882] | 100 nM
46 | CNC(=O)Cn1c(=O)[nH]/c(=N\c2ccc(Oc3cccnn3)cc2)n(Cc2ccc(Cl)cc2)c1=O [Compound I-2690] | 18 nM
47 | CNC(=O)[C@H](CCO)n1c(=O)[nH]/c(=N\c2ccc(OC(C)C)c(C)c2)n(Cc2ccc(Cl)cc2)c1=O [Compound I-0869] | 574 nM
48 | Cc1nc2ccc(/N=c3\[nH]c(=O)n(CC(CO)CO)c(=O)n3Cc3ccc(Cl)cc3)cc2s1 [Compound I-1544] | 4 nM
49 | CCn1c(=O)[nH]/c(=N\c2ccc(Oc3cnc(C(=O)O)nc3)cc2)n(Cc2ccc(Cl)cc2)c1=O [Compound I-2285] | 15 nM
50 | CCn1c(=O)[nH]/c(=N\c2ccc(Oc3cc(C)nn3C)cc2)n(Cc2ccc(Cl)cc2)c1=O [Compound I-2367] | 128 nM
51 | CCn1c(=O)[nH]/c(=N\c2ccc(Oc3ccc(NC(=O)NC)nc3)cc2)n(Cc2ccc(Cl)cc2)c1=O [Compound I-2426] | 11 nM
52 | COC(=O)CCn1c(=O)[nH]/c(=N\c2ccc(Oc3nc(C)ns3)cc2)n(Cc2ccc(Cl)cc2)c1=O [Compound I-2651] | 2 nM
53 | CCOC(=O)C1(Cn2c(=O)[nH]/c(=N\c3ccc4oc(CC)c(C)c4c3)n(Cc3ccc(C)cc3)c2=O)CC1 [Compound I-1546] | 7 nM
54 | CO/N=C/c1ccc(/N=c2\[nH]c(=O)n(C[C@H](C)C(=O)O)c(=O)n2Cc2ccc(Cl)cc2)cc1F [Compound I-0893, (S)-1-(4-chlorobenzyl)-6-(3-fluoro-4-methoxyiminomethylphenylimino)-3-(2-hydroxycarbonylpropyl)methyl-1,3,5-triazinane-2,4-dion] | 202 nM
55 | Cc1ccc(Cn2c(=O)n(CC(F)(F)C(=O)O)c(=O)[nH]/c2=N\c2ccc(OC(C)C)c(C)c2)cc1 [Compound I-0857] | 19 nM
56 | CCn1c(=O)[nH]/c(=N\c2ccc(Oc3cnc(C#N)cn3)cc2)n(Cc2ccc(Cl)cc2)c1=O [Compound I-2427] | 2 nM
57 | COC(=O)[C@@H](C)Cn1c(=O)[nH]/c(=N\c2ccc(OCC3CC3)cc2)n(Cc2ccc(Cl)cc2)c1=O [Compound I-0833] | 15 nM
58 | O=C(Cn1c(=O)[nH]/c(=N\c2ccc(Oc3ncccn3)cc2)n(Cc2ccc(Cl)cc2)c1=O)NCCO [Compound I-2688] | 18 nM
59 | Cc1ccc(Cn2c(=O)n(C[C@H](C)C(=O)O)c(=O)[nH]/c2=N\c2ccc(C(C)C)c(Cl)c2)cc1 [Compound I-1494] | 571 nM
60 | CCn1c(=O)[nH]/c(=N\c2ccc(Oc3ccnc(NCC(=O)NC)c3)cc2)n(Cc2ccc(Cl)cc2)c1=O [Compound I-2555] | 16 nM
61 | CCCOc1ccc(/N=c2\[nH]c(=O)n(C[C@H](CC)C(=O)OC)c(=O)n2Cc2ccc(C)cc2)cc1 [Compound I-0883] | 24 nM
62 | Cc1ccc(Cn2c(=O)n(CC3(C(=O)O)CC3)c(=O)[nH]/c2=N\c2ccc3nc(C)sc3c2)cc1 [Compound I-1554] | 14 nM
63 | COC(=O)/C=C/c1cccc(Oc2ccc(/N=c3\[nH]c(=O)n(C)c(=O)n3Cc3ccc(C)cc3)cc2)c1 [Compound I-2328] | 34 nM
